Here are results for 2 compounds from patent US9546150B2, “Substituted quinazolin-4-ones for inhibiting ubiquitin specific protease 7” (HYBRIGENICS SA, priority 2011, dated 2017).

Holding throughout (type): biochemical
For test [1], the target named is T1, USP5 (Homo sapiens, UniProt P45974).
T1 sequence (P45974 1-858): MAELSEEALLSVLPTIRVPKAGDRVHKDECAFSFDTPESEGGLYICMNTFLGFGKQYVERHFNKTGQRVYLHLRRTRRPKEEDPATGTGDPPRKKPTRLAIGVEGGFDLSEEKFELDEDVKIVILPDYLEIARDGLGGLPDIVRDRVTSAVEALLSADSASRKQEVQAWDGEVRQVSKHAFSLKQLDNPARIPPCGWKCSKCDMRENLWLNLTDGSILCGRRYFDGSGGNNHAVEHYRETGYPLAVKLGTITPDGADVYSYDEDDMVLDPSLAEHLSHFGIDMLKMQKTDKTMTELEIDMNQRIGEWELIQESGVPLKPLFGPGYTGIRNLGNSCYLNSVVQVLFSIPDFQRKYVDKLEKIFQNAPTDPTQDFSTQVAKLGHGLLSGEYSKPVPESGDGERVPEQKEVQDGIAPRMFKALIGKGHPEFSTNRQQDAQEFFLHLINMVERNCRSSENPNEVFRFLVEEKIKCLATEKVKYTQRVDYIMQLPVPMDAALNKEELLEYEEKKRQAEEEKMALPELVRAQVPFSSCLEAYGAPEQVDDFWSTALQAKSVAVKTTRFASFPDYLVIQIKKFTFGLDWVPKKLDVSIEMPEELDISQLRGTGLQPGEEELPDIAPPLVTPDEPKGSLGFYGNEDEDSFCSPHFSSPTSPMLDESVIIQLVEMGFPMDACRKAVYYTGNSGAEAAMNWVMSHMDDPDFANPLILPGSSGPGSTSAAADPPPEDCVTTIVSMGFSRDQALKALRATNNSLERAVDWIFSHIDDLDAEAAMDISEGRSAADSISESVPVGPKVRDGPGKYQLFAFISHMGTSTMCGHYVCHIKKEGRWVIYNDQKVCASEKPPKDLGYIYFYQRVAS
Description: HAUbVS competition assay in HEK293 cell lysates, USP5. Particulars: 12.5-200 μM.
Description: The HA-Ub-VS probe (Hemagglutin tag-Ubiquitin-Vinyl Sulfone) was used in this study to directly visualize the activity of all deubiquitinating enzymes from native proteomes.
HEK293 cells were harvested and lysed on ice with a non denaturating buffer containing Tris pH7.4, 50 mM; NaCl, 150 mM; MgCl2, 5 mM; EDTA, 0.5 mM; DTT, 2 mM; ATP (adenosine triphosphate), 2 mM; NP40 (nonyl phenoxypolyethoxylethanol), 0.5% and glycerol, 10%. Samples were incubated at 4° C. for 1 hour and clarified. Proteins were then quantified by Bradford method (Bio-Rad Protein Assay). […] The ubiquitin labeling reaction was initiated by the addition of HA-Ub-VS (8 μg/ml) in labeling buffer (Tris pH7.6, 50 mM; MgCl2, 5 mM; EDTA, 0.5 mM; DTT, 2 mM; ATP, 2 mM; sucrose, 250 mM) and incubated at room temperature for 15 min. Samples were next heated at 100° C. for 10 minutes and briefly sonicated. They were resolved by SDS-polyacrylamide gel electrophoresis (SDS-PAGE), transferred to a nitrocellulose membrane and probed with antibodies against USP7, HA, UCH-L3, CYLD, USP8, USP5, USP10 and Stat3. […] Signals were detected by enhanced chemiluminescence (ECL; Amersham) according to the reagent manufacturer's instructions.

Test [2] deals with USP10 (Homo sapiens, UniProt Q14694). Kind of test: HAUbVS competition assay in HEK293 cell lysates, USP10. Particulars: 12.5-200 μM.
In test [3] the target is T2, CYLD (Homo sapiens, UniProt Q9NQC7).
T2 sequence (Q9NQC7 1-956): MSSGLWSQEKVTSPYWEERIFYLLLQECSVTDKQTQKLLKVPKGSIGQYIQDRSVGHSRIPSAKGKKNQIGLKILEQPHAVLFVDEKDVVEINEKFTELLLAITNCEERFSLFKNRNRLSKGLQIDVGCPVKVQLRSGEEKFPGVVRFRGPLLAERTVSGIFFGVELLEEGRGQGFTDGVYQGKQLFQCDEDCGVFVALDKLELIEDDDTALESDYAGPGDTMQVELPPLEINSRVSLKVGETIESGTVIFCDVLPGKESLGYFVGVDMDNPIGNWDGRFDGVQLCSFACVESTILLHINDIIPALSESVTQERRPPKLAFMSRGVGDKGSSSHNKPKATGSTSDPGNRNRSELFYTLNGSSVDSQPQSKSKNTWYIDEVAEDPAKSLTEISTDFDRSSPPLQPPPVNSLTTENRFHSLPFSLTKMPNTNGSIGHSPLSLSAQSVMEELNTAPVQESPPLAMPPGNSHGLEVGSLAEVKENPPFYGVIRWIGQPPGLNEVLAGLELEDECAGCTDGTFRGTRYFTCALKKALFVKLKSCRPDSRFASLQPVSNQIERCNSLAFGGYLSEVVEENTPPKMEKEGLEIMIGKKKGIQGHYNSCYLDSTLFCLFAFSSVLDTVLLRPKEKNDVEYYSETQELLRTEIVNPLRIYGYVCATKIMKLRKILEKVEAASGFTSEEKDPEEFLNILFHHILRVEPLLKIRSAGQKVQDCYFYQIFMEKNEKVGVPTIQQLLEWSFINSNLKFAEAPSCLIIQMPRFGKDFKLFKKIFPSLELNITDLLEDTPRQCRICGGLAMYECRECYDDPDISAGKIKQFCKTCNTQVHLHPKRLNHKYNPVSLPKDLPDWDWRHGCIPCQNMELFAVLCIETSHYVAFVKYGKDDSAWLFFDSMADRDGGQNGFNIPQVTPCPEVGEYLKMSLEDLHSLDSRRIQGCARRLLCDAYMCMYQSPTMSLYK
Description: HAUbVS competition assay in HEK293 cell lysates, CYLD. The following applies: 12.5-200 μM.

In test [4] the target is USP7 (Homo sapiens, UniProt Q93009). Description: Time-dependent pre-incubation experiment with USP7, Ub-AMC. Also noted: Full-length wild-type human USP7 and its catalytic mutant; His tag (pFastBac-HT vector) (N); made in house; host or cells: Spodoptera frugiperda Sf9 (or High Five) insect cells, baculovirus. The protocol:
To better understand the mechanism of inhibition of USP7 by our USP7-specific compounds, several experiments were performed. […] […].

USP10, sequence (Q14694 whole entry): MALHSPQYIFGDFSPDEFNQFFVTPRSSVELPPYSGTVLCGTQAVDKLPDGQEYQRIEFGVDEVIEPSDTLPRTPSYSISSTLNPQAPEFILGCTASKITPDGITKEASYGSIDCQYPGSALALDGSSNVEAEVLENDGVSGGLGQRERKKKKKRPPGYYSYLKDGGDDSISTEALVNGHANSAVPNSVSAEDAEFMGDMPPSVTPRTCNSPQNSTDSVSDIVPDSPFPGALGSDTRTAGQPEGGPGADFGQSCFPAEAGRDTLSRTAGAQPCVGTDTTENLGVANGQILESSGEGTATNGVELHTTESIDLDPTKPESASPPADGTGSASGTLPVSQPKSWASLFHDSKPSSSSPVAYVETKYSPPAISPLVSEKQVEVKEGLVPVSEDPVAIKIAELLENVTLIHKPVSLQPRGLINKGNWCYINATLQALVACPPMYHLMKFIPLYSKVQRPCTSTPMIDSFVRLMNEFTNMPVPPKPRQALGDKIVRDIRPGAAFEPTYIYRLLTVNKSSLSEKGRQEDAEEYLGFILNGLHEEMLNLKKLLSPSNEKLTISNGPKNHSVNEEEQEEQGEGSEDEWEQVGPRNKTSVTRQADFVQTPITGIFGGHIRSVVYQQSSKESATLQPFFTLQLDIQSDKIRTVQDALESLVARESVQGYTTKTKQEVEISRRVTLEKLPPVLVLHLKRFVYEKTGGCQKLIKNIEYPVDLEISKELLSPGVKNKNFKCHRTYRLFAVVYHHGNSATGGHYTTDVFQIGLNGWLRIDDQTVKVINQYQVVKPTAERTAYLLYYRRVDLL
USP7, sequence (Q93009 whole entry): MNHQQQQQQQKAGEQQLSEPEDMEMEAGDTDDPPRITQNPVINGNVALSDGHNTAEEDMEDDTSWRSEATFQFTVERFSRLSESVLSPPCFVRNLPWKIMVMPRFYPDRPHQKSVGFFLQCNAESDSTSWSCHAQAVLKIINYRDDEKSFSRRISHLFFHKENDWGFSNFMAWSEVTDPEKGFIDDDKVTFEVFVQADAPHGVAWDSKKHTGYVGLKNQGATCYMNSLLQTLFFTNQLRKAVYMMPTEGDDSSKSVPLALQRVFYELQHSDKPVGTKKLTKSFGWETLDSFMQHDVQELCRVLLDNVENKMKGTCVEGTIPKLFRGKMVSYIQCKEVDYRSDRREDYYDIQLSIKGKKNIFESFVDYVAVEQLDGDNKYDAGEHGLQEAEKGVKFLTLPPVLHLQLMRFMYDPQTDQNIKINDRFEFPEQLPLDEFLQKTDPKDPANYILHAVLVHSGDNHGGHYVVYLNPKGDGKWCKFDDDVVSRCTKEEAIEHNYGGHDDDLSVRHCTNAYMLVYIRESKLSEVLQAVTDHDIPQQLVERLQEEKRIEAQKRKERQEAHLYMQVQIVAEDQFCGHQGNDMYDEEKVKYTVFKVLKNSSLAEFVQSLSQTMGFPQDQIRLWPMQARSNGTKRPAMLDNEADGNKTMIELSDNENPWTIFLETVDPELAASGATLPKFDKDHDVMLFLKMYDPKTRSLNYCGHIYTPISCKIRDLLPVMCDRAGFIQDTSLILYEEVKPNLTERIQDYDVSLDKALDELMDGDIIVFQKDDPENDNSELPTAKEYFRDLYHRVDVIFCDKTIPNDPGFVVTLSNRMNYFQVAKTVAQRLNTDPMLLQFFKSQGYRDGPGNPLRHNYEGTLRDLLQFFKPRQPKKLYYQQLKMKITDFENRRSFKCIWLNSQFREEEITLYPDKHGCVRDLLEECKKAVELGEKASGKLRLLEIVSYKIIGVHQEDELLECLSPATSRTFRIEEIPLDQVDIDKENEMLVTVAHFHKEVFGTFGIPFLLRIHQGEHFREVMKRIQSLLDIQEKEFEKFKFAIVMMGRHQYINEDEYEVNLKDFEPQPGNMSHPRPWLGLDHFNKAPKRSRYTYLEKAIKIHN

Regarding `CC(Cc1cccs1)C(=O)N1CCC(O)(Cn2cnc3ccccc3c2=O)CC1` (stereo not shown) [Example 5, 3-({4-hydroxy-1-[2-methyl-3-(thiophen-2-yl)propanoyl]piperidin-4-yl}methyl)-3,4-dihydroquinazolin-4-one], the “blocking of HAUbVS labeling of USP5” value in test [1] is listed as “without any cross-reaction”. Moreover, the “blocking of HAUbVS labeling of USP10” value in test [2] is “without any cross-reaction”. The “blocking of HAUbVS labeling of CYLD” value in test [3] was “without any cross-reaction”.
As to `O=C(CCc1ccccc1)N1CCC(O)(Cn2cnc3cc(Cl)ccc3c2=O)CC1` [Example 2, 7-chloro-3-{[4-hydroxy-1-(3-phenylpropanoyl)piperidin-4-yl]methyl}-3,4-dihydroquinazolin-4-one], the “blocking of HAUbVS labeling of USP10” value in test [2] is reported as “without any cross-reaction”. For the same compound, the “blocking of HAUbVS labeling of CYLD” value in test [3] is listed as “without any cross-reaction”. Further, the “time dependence of USP7 inhibition” value in test [4] (100 μM, pre-incubation 30 min, 1 h, 2 h, 4 h, 6 h) is reported as “not a time-dependent inhibitor”. This compound showed an inhibition at 100 µM in test [4] (USP7 100 pM, pre-incubation 30 min to 6 h, Ub-AMC) of roughly 75%.
